Laboratory results reported in patent US8785467B2, “Alkoxy pyrimidine PDE10 inhibitors” (Merck Sharp & Dohme Corp., priority 2010, dated 2014).

Target: human PDE10A2 (Homo sapiens (Human), UniProt Q9Y233)
Experiment: PDE10 fluorescence polarization (IMAP FP) inhibition assay
Format: biochemical
Details: human PDE10A2 from transfected AD293 cell lysate, FAM-labeled cAMP 50 nM, room temperature; read-out: PDE10A Ki
Procedure: The activity of the compounds in accordance with the present invention as PDE10 inhibitors may be readily determined without undue experimentation using a fluorescence polarization (FP) methodology that is well known in the art (Huang, W., et al., J. Biomol Screen, 2002, 7: 215).
In a typical experiment the PDE10 inhibitory activity of the compounds of the present invention was determined in accordance with the following experimental method. PDE10A2 was amplified from human fetal brain cDNA (Clontech, Mountain View, Calif.) using a forward primer corresponding to nucleotides 56-77 of human PDE10A2 (Accession No. AF127480, Genbank Identifier 4894716), containing a Kozak consensus sequence, and a reverse primer corresponding to nucleotides 2406-2413 of human PDE10A2 (Accession No. AF 127480, Genbank Identifier 4894716). Amplification with Easy-A polymerase (Stratagene, La Jolla, Calif.) was 95° C. for 2 minutes followed by thirty three cycles of 95° C. for 40 seconds, 55° C. for 30 seconds, and 72° C. for 2 minutes 48 seconds. Final extension was 72° C. for 7 minutes. The PCR product was TA cloned into pcDNA3.2-TOPO (Invitrogen, Carlsbad, Calif.) according to standard protocol. AD293 cells with 70-80% confluency were transiently transfected with human PDE10A2/pcDNA3.2-TOPO using Lipofectamine 2000 according to manufacturer specifications (Invitrogen, Carlsbad, Calif.). Cells were harvested 48 hours post-transfection and lysed by sonication (setting 3, 10×5 sec pulses) in a buffer containing 20 mM HEPES, 1 mM EDTA and protease inhibitor cocktail (Roche). Lysate was collected by centrifugation at 75,000×g for 20 minutes. Supernatant containing the cytoplasmic fraction was used for evaluation of PDE10A2 activity. The fluorescence polarization assay for cyclic nucleotide phosphodiesterases was performed using an IMAP® FP kit supplied by Molecular Devices, Sunnyvale, Calif. (product #R8139). IMAP® technology has been applied previously to phosphodiesterase assays (Huang, W., et al., J. Biomol Screen, 2002, 7: 215). Assays were performed at room temperature in 384-well microtiter plates with an incubation volume of 20.2 μL. Solutions of test compounds were prepared in DMSO and serially diluted with DMSO to yield 8 μL of each of 10 solutions differing by 3-fold in concentration, at 32 serial dilutions per plate. 100% inhibition is determined using a known PDE10 inhibitor, which can be any compound that is present at 5,000 times its Ki value in the assay described as follows, such as papaverine (see Siuciak, et al. Neuropharmacology (2006) 51:386-396; Becker, et al. Behav Brain Res (2008) 186(2):155-60; Threlfell, et al., J Pharmacol Exp Ther (2009) 328(3):785-795), 2-{4-[pyridin-4-yl-1-(2,2,2-trifluoroethyl)-1H-pyrazol-3-yl]phenoxymethyl}quinoline succinic acid or 2-[4-(1-methyl-4-pyridin-4-yl-1H-pyrazol-3-yl)-phenoxymethyl]quinoline succinic acid (see Schmidt, et al. J Pharmacol Exp Ther (2008) 325:681-690; Threlfell, et al., J Pharmacol Exp Ther (2009) 328(3): 785-795). 0% of inhibition is determined by using DMSO (1% final concentrations).
A Labcyte Echo 555 (Labcyte, Sunnyvale, Calif.) is used to dispense 200 nL from each well of the titration plate to the 384 well assay plate. A solution of enzyme ( 1/1600 dilution from aliquots; sufficient to produce 20% substrate conversion) and a separate solution of FAM-labeled cAMP PDE from Molecular Devices (product #R7506), at a final concentration of 50 nM are made in the assay buffer (10 mM Tris HCl, pH 7.2, 10 mM MgCl2, 0.05% NaN3 0.01% Tween-20, and 1 mM DTT). The enzyme and the substrate are then added to the assay plates in two consecutive additions of 10 μL, and then shaken to mix. The reaction is allowed to proceed at room temperature for 30 minutes. A binding solution is then made from the kit components, comprised of 80% Solution A, 20% Solution B and binding reagent at a volume of 1/600 the total binding solution. […]

human PDE10A2, sequence (Q9Y233 267-1055): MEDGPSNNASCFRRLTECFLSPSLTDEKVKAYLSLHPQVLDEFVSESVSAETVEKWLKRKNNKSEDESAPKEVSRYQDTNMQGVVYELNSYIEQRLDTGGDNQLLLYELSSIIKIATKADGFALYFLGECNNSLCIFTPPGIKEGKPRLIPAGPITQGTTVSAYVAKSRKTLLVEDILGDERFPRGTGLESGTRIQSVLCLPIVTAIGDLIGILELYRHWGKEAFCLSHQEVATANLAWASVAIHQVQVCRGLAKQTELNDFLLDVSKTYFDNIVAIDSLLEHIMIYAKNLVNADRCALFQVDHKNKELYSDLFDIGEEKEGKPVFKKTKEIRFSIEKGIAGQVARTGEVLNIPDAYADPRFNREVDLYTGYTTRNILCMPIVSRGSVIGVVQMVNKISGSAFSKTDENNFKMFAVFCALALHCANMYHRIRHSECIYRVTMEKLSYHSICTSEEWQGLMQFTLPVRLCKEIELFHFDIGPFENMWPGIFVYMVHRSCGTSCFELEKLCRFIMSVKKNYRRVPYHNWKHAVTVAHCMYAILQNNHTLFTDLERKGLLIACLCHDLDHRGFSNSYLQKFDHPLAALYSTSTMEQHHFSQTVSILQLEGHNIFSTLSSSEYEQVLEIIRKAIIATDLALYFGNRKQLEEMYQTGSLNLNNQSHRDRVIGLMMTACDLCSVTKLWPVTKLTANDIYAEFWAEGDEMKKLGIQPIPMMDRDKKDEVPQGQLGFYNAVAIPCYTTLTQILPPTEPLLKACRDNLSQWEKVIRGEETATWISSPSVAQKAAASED

Structure (SMILES)	Ki [nM]
Cc1nc(C)c(CNc2nc(OC[C@H]3C[C@@H]3c3ccccn3)nc(Cl)c2C)s1 (stereo in doubt) [Compound 1-20, 6-chloro-N-[(2,4-dimethyl-1,3-thiazol-5-yl)methyl]-5-methyl-2-{[2-pyridin-2-ylcyclopropyl]methoxy}pyrimidin-4-amine]	0.019
Cc1c(Cl)nc(OC[C@@H]2C[C@H]2c2ccccn2)nc1NCc1cnn(C)c1 (stereo in doubt) [Compound 1-39, 6-chloro-5-methyl-N-[(1-methyl-1H-pyrazol-4-yl)methyl]-2-{[2-(pyridin-2-yl)cyclopropyl]methoxy}pyrimidin-4-amine]	0.44
Cn1cc(CNc2cc(C#N)nc(OC[C@H]3C[C@@H]3c3ccccn3)n2)cn1 (stereo in doubt) [Compound 1-41, 6-((1-methyl-1H-pyrazol-4-yl)methylamino)-2-((2-(pyridin-2-yl)cyclopropyl)methoxy)pyrimidin-4-carbonitrile]	35
CSc1nc(OC[C@H]2C[C@@H]2c2ccccn2)nc(NCc2cnn(C)c2)c1C (stereo in doubt) [Compound 1-43, 5-methyl-N-((1-methyl-1H-pyrazol-4-yl)methyl)-6-(methylthio)-2-((2-(pyridin-2-yl)cyclopropyl)methoxy)-pyrimidin-4-amine]	0.17
Cc1c(NCc2cnn(C)c2)nc(OC[C@H]2C[C@@H]2c2ccccn2)nc1N(C)C (stereo in doubt) [Compound 1-44, N4,N4,5-trimethyl-N6-((1-methyl-1H-pyrazol-4-yl)methyl)-2-((2-(pyridin-2-yl)cyclopropyl)methoxy)pyrimidine-4,6-diamine]	53
Cc1nc(C)c(CNc2nc(OC[C@H]3C[C@@H]3c3ccccn3)nc(-c3ncco3)c2C)s1 (stereo in doubt) [Compound 1-46, N-((2,4-dimethylthiazol-5-yl)methyl)-5-methyl-6-(oxazol-2-yl)-2-((2-(pyridin-2-yl)cyclopropyl)methoxy)-pyrimidin-4-amine]	6.4
Cc1c(Cl)nc(OCCCc2ccc3ncccc3n2)nc1NCc1cnn(C)c1 [Compound 1-21, 6-chloro-5-methyl-N-[(1-methyl-1H-pyrazol-4-yl)methyl]-2-[3-(1,5-naphthyridin-2-yl)propoxy]pyrimidin-4-amine]	2.1
Cc1nc(C)c(CNc2nc(OCCCc3nc4ccccc4[nH]3)nc(Cl)c2C)s1 [Compound 1-27, 2-[3-(1H-benzimidazol-2-yl)propoxy]-6-chloro-N-[(2,4-dimethyl-1,3-thiazol-5-yl)methyl]-5-methylpyrimidin-4-amine]	0.023
Cc1nc(C)c(CNc2nc(OCCCc3ccc4ccccc4n3)nc(Cl)c2C)s1 [Compound 1-29, 6-chloro-N-[(2,4-dimethyl-1,3-thiazol-5-yl)methyl]-5-methyl-2-(3-quinolin-2-ylpropoxy)pyrimidin-4-amine]	0.008
Cc1nc(C)c(CNc2nc(OCCOc3ccc4cccnc4n3)nc(Cl)c2C)s1 [Compound 1-32, 6-chloro-N-[(2,4-dimethyl-1,3-thiazol-5-yl)methyl]-5-methyl-2-[2-(1,8-naphthyridin-2-yloxy)ethoxy]pyrimidin-4-amine]	0.04
Cc1nc(C)c(CNc2nc(OCCc3ccccn3)nc(C#N)c2C)s1 [Compound 1-42, 6-((2,4-dimethylthiazol-5-yl)methylamino)-5-methyl-2-(2-(pyridin-2-yl)ethoxy)pyrimidine-4-carbonitrile]	100
Cc1nc(C)c(CNc2nc(OC[C@H]3C[C@@H]3c3ccc4ncccc4n3)ncc2C)s1 [Compound 1-45, 2-(((1S,2S)-2-(1,5-naphthyridin-2-yl)cyclopropyl)methoxy)-N-((2,4-dimethylthiazol-5-yl)methyl)-5-methylpyrimidin-4-amine]	0.058
Cc1c(Cl)nc(OC[C@H]2C[C@@H]2c2ccc3ncccc3n2)nc1NCc1nc(C)n(C)n1 [Compound 1-47, 2-(((1S,2S)-2-(1,5-naphthyridin-2-yl)cyclopropyl)methoxy)-6-chloro-N-((1,5-dimethyl-1H-1,2,4-triazol-3-yl)methyl)-5-methylpyrimidin-4-amine]	8.1
Cc1nc(C)c(CNc2nc(OC[C@H]3C[C@@H]3c3ccc4ncccc4n3)nc(Cl)c2C)o1 [Compound 1-48, 2-(((1S,2S)-2-(1,5-naphthyridin-2-yl)cyclopropyl)methoxy)-6-chloro-N-((2,4-dimethyloxazol-5-yl)methyl)-5-methylpyrimidin-4-amine]	0.49
Cc1nc(CNc2nc(OC[C@H]3C[C@@H]3c3ccc4ncccc4n3)nc(Cl)c2C)n(C)n1 [Compound 1-49, 2-(((1S,2S)-2-(1,5-naphthyridin-2-yl)cyclopropyl)methoxy)-6-chloro-N-((1,3-dimethyl-1H-1,2,4-triazol-5-yl)methyl)-5-methylpyrimidin-4-amine]	2.2
COc1ccc([C@H]2C[C@@H]2COc2nc(Cl)c(C)c(NCc3cnn(C)n3)n2)nc1 [Compound 1-50]	0.77
Cc1cc(CNc2nc(OC[C@H]3C[C@@H]3c3ccc4ncccc4n3)nc(Cl)c2C)n(C)n1 [Compound 1-51, 2-(((1S,2S)-2-(1,5-naphthyridin-2-yl)cyclopropyl)methoxy)-6-chloro-N-((1,3-dimethyl-1H-pyrazol-5-yl)methyl)-5-methylpyrimidin-4-amine]	0.0032
